Experimental data: US10633448B2, “IGF-1R antibody-drug-conjugate and its use for the treatment of cancer” (PIERRE FABRE MEDICAMENT, priority 2014, dated 2020)

Experiments:
lysosome functions = assay: Inhibition of Ab degradation with lysosome inhibitor; format: cell-based; conditions: cells with 10 μg/ml Ab, 2 h at 37° C.
Experimental: In order to confirm that antibodies reached the lysosome were they are degraded, cells were treated or not with bafilomycine A1, a potent inhibitor of lysosome functions. Cells were then incubated with 10 μg/ml of Ab to be tested at 4° C., washed and incubated for 2 h at 37° C. The internalized Ab was detected after cell permeabilisation using a secondary anti-mouse IgG-Alexa 488 Ab.

[1] = test system: MDA-MB-231 (breast adenocarcinoma) cells; assay: ATPlite antiproliferative assay, MDA-MB-231; format: cell-based, human; conditions: 72 h drug treatment
Experimental: A549 (Non Small Cell Lung Cancer—ATCC CCL-185) and MDA-MB-231 (breast adenocarcinoma—ATCC HTB-26) cells were cultured in Minimum Essential Medium Eagle (MEM) with 5% fetal calf serum (FCS) and Dulbecco's modified Eagle Medium (DMEM) with 10% FCS respectively. MCF7 (breast ductal carcinoma—ATCC HTB-22) and SN-12C (kidney carcinoma—ATCC) cells were maintained in RPMI1640 medium (without phenol red for MCF7 cells) containing 10% FCS. All the media were supplemented with fungizone (1.25 μg/mL) and penicillin-streptomycin (100 U/100 μg/mL). Cells were cultured under standard conditions in an incubator at 37° C., 5% CO2 and 95% atmospheric humidity.
Selected drugs were investigated for their antiproliferative activity using an ATPlite proliferation assay (Perkin Elmer, Villebon sur Yvette, France) on a comprehensive panel of 4 cell lines. […] On day 4, cell viability was evaluated by dosing the ATP released by viable cells. The number of viable cells was analyzed in comparison with the number of solvent treated cells. The EC50 values were determined with curve fitting analysis (non linear regression model with a sigmoidal dose response, variable hill slope coefficient), performed with the algorithm provided by the GraphPad Software (GraphPad Software Inc., CA, USA).

Row | Compound | degradation of intracellular Ab (lysosome functions) | EC50 [1] [pM]
1 | CO/C1=C\C(C)=C\[C@@H](C)[C@@H](O)[C@@H](C)C/C(C)=C/C=C/[C@H](OC)[C@@H]([C@@H](C)[C@@H](O)[C@H](C)[C@@]2(O)C[C@@H](O)[C@H](C)[C@@H](C(C)C)O2)OC1=O [bafilomycine A1] | prevented the degradation of intracellular Ab | –
2 | methyl (S)-2-((2R,3R)-3-((S)-1-((3R,4S,5S)-4-((S)-2-((S)-2-((3-aminobenzyl)(methyl)amino)-3-methylbutanamido)-N,3-dimethylbutanamido)-3-methoxy-5-methylheptanoyl)pyrrolidin-2-yl)-3-methoxy-2-methylpropanamido)-3-phenylpropanoate, trifluoroacetic acid [Compound 15] | – | 170
